Assay results as given in US20060121136A1, “Hypotensive agent and method for producing same” (National Institute of Advanced Industrial Science and …, priority 2003, published 2006).

Target: T1, angiotensin-converting enzyme (ACE) (Oryctolagus cuniculus, UniProt P12822)
T1 construct: purchased Wako Jun-yaku A6778 (Lot No.)
T1 sequence (P12822 34-1310): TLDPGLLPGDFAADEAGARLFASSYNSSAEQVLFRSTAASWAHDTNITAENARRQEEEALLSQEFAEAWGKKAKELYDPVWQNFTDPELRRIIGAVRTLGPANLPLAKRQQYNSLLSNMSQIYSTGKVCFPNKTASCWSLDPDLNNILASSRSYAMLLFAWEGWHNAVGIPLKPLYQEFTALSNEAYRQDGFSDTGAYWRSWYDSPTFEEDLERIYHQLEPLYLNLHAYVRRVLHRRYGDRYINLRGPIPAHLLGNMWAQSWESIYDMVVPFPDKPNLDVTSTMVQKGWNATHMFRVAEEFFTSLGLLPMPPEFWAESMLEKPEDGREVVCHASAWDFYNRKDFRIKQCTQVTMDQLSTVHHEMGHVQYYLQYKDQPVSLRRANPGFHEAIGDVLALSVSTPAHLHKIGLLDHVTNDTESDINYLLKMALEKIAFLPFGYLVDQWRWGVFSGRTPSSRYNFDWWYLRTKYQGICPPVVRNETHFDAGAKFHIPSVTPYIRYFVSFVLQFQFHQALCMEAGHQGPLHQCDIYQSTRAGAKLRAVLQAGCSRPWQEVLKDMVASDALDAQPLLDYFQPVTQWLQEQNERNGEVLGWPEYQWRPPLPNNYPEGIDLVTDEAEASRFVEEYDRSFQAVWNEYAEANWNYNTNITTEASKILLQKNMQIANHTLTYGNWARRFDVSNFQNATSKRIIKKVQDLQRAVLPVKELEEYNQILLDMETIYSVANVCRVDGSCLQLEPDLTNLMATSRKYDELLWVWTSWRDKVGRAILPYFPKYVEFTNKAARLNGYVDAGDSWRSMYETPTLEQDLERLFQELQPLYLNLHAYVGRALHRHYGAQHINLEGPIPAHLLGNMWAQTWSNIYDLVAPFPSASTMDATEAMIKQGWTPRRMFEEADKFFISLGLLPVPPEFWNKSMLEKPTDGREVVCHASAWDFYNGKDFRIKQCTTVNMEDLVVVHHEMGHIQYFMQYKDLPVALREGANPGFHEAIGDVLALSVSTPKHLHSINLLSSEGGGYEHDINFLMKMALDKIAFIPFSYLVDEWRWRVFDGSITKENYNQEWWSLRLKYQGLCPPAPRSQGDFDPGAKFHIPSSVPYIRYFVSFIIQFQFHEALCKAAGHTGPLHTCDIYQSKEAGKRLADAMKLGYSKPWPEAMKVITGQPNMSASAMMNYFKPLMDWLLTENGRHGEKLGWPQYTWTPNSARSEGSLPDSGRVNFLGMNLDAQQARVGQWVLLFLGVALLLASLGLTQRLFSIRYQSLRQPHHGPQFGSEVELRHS
Experiment: ACE inhibiting activity (Hip-His-Leu substrate, liberated hippuric acid OD at 228 nm)
Format: biochemical
Description: The blood pressure-lowering activity of the oligosaccharide for use in the invention was investigated by determining the angiotensin-converting enzyme inhibiting activity (hereinafter referred to as ACE inhibiting activity) thereof. Concretely, various oligosaccharides mentioned below were analyzed for their ACE inhibiting activity. • 1) Glc(α1-1α)Glc: α,α-trehalose (sold by Wako Jun-yaku, Lot No. KP7915), • 2) Glc(α1-1β)Glc: α,β-trehalose (sold by Sigma, Lot No. T-0299), • 3) Glc(β1-1β)Glc: β,β-trehalose (sold by Sigma, Lot No. T-0917), • 4) Glc(α1-2)Glc: kojibiose (sold by Sigma, Lot No. T-0299), • 5) Glc(β1-2)Glc: sophorose (sold by Sigma, Lot No. S-1404), • 6) Glc(α1-3)Glc: nigerose (sold by Wako Jun-yaku, Lot No. 142-06433), • 7) Glc(β1-3)Glc: laminaribiose (sold by Sigma, Lot No. L-6384), • 8) Glc(α1-4)Glc: maltose (sold by Sigma, Lot No. M-9171), • 9) Glc(β1-4)Glc: cellobiose (sold by Nacalai, Lot No. 075-11), • 10) Glc(α1-6)Glc: isomaltose (sold by Sigma, Lot No. I-7253), • 11) Glc(β1-6)Glc: gentiobiose (sold by Sigma, Lot No. G-3000), • 12) Gal(α1-6)Glc: melibiose (sold by Sigma, Lot No. M-5500), • 13) Gal(β1-6)Gal (sold by Sigma, Lot No. G-5643), • 14) Glc(α1-6) glucitol:Glc(α1-6) mannitol (=50:50) (sold by Sigma, Lot No. P8583-500), • 15) Glc(α1-6)Fru: palatinose (sold by Sigma, Lot No. M-5500), • 16) Fru(β2-1α)Glc: sucrose (sold by Wako Jun-yaku, Lot No. 192-00012), and • 17) Glc(α1-3) Fru(β2-1α) Glc: melezitose (sold by Nacalai, Lot No. 214-01). In these, Glu means glucose; Gal means galactose; and Fru means fructose.
Each oligosaccharide as above was dissolved in water (MilliQ water). Because of the solubility thereof, the sample was dissolved to have a final concentration of 10, 30 or 100 mM at the time when its activity is determined (Table 1). Next, with cooling with ice, 30 μl of the sample (Nos. 1 to 17 in Table 1) was put into a test tube. Then, 100 μl of ACE (sold by Wako Jun-yaku, Lot No. A6778) in a borate buffer (60 mU/ml) (pH 8.3) was added to each sample. As a blank, one also added with 250 μl of 1 N HCl serving as a reaction stopper was prepared. These were pre-incubated at 37° C. for 5 minutes. Further, 250 μl of a borate buffer (pH 8.3) containing as a substrate, 7.6 mM Hip-His-Leu (sold by Sigma, Lot No. 012-02195) and 608 mM sodium chloride (sold by Wako Jun-yaku, Lot No. 191-01665) was added. These were reacted at 37° C. for 30 minutes. Then, 250 μl of 1 NHCl was added and stirred, and the reaction was stopped. Then, 1.5 ml of ethyl acetate (sold by Wako Jun-yaku, Lot No. 051-00356) was added, and the thus-liberated hippuric acid was extracted out. After thus extracted, it was centrifuged at 3000 rpm for 10 minutes, and 0.5 ml of the supernatant (ethyl acetate layer)was recovered. The thus-recovered ethyl acetate was removed under reduced pressure, and 4 ml of water was added and stirred. The absorption of the dissolved hippuric acid at 228 nm (OD) was measured. The borate buffer used herein was prepared from Na2B4O7 (sold by Wako Jun-yaku, Lot No. 194-01415) and H3BO3 (sold by Wako Jun-yaku, Lot No. 012-02195) so that its pH could be 8.3. The data obtained were computed according to the calculation formula mentioned below, and the ACE inhibiting activity (%) of each sample was obtained as in Table 1 and FIG. 1. ACE Inhibiting Activity (%)={[(solvent OD−solvent blank OD)−(sample OD−sample blank OD)]/(solvent OD−solvent blank OD)}×100.

[1] = final sample concentration 100 mM
[2] = final sample concentration 30 mM
[3] = final sample concentration 10 mM

ACE Inhibiting Activity (%) [2] [%]	ACE Inhibiting Activity (%) [1] [%]	Molecule	further results
–	27.2	OC[C@H]1O[C@H](OC[C@H]2OC(O)[C@H](O)[C@@H](O)[C@@H]2O)[C@H](O)[C@@H](O)[C@@H]1O (stereo partly shown) [compound 10, isomaltose]	–
–	54.9	OC[C@H]1O[C@@H](OC[C@H]2OC(O)[C@H](O)[C@@H](O)[C@H]2O)[C@H](O)[C@@H](O)[C@H]1O (stereo partly drawn) [compound 13, Gal(β1-6)Gal]	–
–	93.5	OC[C@H]1O[C@H](OC[C@H]2OC(O)(CO)[C@@H](O)[C@@H]2O)[C@H](O)[C@@H](O)[C@@H]1O (stereo partly shown) [compound 15, palatinose]	–

Second part, the molecule before the results:

Molecule	ACE Inhibiting Activity (%) [2] [%]	ACE Inhibiting Activity (%) [1] [%]	further results
OC[C@H]1O[C@H](O[C@H]2[C@H](O)[C@@H](O)C(O)O[C@@H]2CO)[C@H](O)[C@@H](O)[C@@H]1O (mixture of isomers) [compound 8, maltose]	–	–	inhibition at 100000 µM [1]: 6.3%
OC[C@H]1O[C@H](O[C@H]2O[C@H](CO)[C@@H](O)[C@H](O)[C@H]2O)[C@H](O)[C@@H](O)[C@@H]1O [compound 1, α,α-trehalose]	1.2	–	–
OC[C@H]1O[C@@H](O[C@H]2O[C@H](CO)[C@@H](O)[C@H](O)[C@H]2O)[C@H](O)[C@@H](O)[C@@H]1O [compound 2, α,β-trehalose]	1.6	–	–
OC[C@H]1O[C@@H](O[C@@H]2O[C@H](CO)[C@@H](O)[C@H](O)[C@H]2O)[C@H](O)[C@@H](O)[C@@H]1O [compound 3, β,β-trehalose]	0.6	–	–
OC[C@H]1O[C@H](O[C@H]2C(O)O[C@H](CO)[C@@H](O)[C@@H]2O)[C@H](O)[C@@H](O)[C@@H]1O (stereo partly shown) [compound 4, kojibiose]	–	–	ACE Inhibiting Activity (%) [3]: 1.0%
OC[C@H]1O[C@@H](O[C@H]2C(O)O[C@H](CO)[C@@H](O)[C@@H]2O)[C@H](O)[C@@H](O)[C@@H]1O (stereo partly shown) [compound 5, sophorose]	3.0	–	–
OC[C@H]1O[C@H](O[C@H]2[C@H](O)[C@@H](CO)OC(O)[C@@H]2O)[C@H](O)[C@@H](O)[C@@H]1O (stereo partly shown) [compound 6, nigerose]	–	–	ACE Inhibiting Activity (%) [3]: 0.4%
OC[C@H]1O[C@@H](O[C@H]2[C@H](O)[C@@H](CO)OC(O)[C@@H]2O)[C@H](O)[C@@H](O)[C@@H]1O (stereo partly shown) [compound 7, laminaribiose]	0.8	–	–
O=C[C@H](O)[C@@H](O)[C@H](O[C@@H]1O[C@H](CO)[C@@H](O)[C@H](O)[C@H]1O)[C@H](O)CO [compound 9, cellobiose]	–	–	inhibition at 30000 µM [2]: -1%
OC[C@H]1O[C@H](OCC2O[C@@H](O)[C@H](O)[C@@H](O)[C@@H]2O)[C@H](O)[C@@H](O)[C@H]1O (stereo partly shown) [compound 12, melibiose]	–	40.7	–
OC[C@H]1O[C@@](CO)(O[C@H]2O[C@H](CO)[C@@H](O)[C@H](O)[C@H]2O)[C@@H](O)[C@@H]1O [compound 16, sucrose]	–	–	inhibition at 30000 µM [2]: 6.6%
OC[C@H]1O[C@@](CO)(O[C@H]2O[C@H](CO)[C@@H](O)[C@H](O)[C@H]2O)[C@@H](O[C@H]2O[C@H](CO)[C@@H](O)[C@H](O)[C@H]2O)[C@@H]1O [compound 17, melezitose]	–	–	inhibition at 30000 µM [2]: 5.5%
gentiobiose [compound 11]	–	31.5	–
